Source: US8778966B2, “Quinolinone derivatives as PARP and tank inhibitors” (Janssen Pharmaceutica, NV, priority 2007, dated 2014)

What was measured:
Human PARP-1 enzyme = target: T1, Human PARP-1 enzyme (Homo sapiens, UniProt P09874); test: In vitro Scintillation Proximity Assay (SPA) for PARP-1 inhibitory activity; type: biochemical; conditions: read-out: in vitro SPA assay PARP-1 pIC50 (converted)
T1 construct: purchased Trevigen
Method in brief: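 SPA assay: nicked-DNA-activated PARP-1 (0.1–0.2 μg/ml) ADP-ribosylates biotinylated histones (2 μg/ml) using [3H]-NAD+, 20 min at RT in Tris pH 8/DTT/MgCl2, stopped with 2 mM NAD+. Blank-subtracted cpm expressed as % control; IC50 by linear interpolation, reported as pIC50 (10−5 to 3×10−9 M tested).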

PC-3 cells = test: Antiproliferative activity, Alamar Blue assay, PC-3 cells; type: cell-based, human; conditions: Homo sapiens, PC-3, PC3 cells; read-out: PC3 antiproliferative activity pIC50 (converted)
Method in brief: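 PC-3 cells seeded at 4.5×10^3 cells/ml, left to adhere 24 hr, then exposed to compound for 4 days. Resazurin (Alamar Blue) added for a further 24 hrs at 37° C; fluorescence read at 540/590 nm. Viability as % of untreated control, mean of 3 wells; IC50 by probit analysis, reported as pIC50.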

T1 sequence (P09874 whole entry): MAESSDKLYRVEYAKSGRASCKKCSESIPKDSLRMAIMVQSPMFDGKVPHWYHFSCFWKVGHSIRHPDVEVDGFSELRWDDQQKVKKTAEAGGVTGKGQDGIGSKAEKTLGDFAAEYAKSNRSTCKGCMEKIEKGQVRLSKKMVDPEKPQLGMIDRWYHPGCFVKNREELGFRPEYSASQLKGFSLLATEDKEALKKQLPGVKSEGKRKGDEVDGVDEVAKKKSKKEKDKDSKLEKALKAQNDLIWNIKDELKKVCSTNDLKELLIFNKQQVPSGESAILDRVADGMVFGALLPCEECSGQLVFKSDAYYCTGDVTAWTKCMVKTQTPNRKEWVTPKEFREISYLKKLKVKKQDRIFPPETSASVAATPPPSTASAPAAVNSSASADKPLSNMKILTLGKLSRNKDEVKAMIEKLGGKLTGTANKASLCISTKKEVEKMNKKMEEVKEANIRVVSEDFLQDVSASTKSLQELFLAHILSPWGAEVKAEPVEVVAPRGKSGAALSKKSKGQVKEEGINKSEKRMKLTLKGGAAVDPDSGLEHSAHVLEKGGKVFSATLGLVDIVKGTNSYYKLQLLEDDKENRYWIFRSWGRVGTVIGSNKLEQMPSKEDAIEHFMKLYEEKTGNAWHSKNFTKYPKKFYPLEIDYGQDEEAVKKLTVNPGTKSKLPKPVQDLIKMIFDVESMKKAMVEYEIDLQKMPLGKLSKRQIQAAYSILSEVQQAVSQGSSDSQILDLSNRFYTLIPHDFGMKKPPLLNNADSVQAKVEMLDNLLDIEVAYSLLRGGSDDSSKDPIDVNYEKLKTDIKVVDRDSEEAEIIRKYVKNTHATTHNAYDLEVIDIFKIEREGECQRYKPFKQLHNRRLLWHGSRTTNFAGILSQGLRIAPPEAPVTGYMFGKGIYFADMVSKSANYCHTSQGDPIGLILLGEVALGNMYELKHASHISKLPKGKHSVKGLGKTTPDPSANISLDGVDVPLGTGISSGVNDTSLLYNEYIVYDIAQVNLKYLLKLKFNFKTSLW

SMILES | IC50 (Human PARP-1 enzyme) | IC50 (PC-3 cells)
CCc1cc2ccc(C(C)(C#N)CCOc3ccccc3Cl)cc2[nH]c1=O (stereo not shown) [Compound 152] | 398 nM | 1580 nM
CCc1cc2ccc(C(C)(C#N)CCOc3ccc(Cl)cc3Cl)cc2[nH]c1=O (stereo not shown) [Compound 154] | 1260 nM | 398 nM
CCc1cc2ccc(C(C)(C#N)CC3CN(C)c4ccccc4O3)cc2[nH]c1=O (stereo not shown) [Compound 156] | 316 nM | 2510 nM
CCc1cc2ccc(C(C)(C#N)CCOc3cccc4ccccc34)cc2[nH]c1=O (stereo not shown) [Compound 158] | 1580 nM | 794 nM
CCc1cc2ccc(C(C)(C#N)CCOc3ccccc3C(C)=O)cc2[nH]c1=O (stereo not shown) [Compound 159] | 251 nM | > 10000 nM
CCc1cc2ccc(C(C)(C#N)CCOc3ccc4oc(C)c(C)c4c3)cc2[nH]c1=O (stereo not shown) [Compound 162] | 1000 nM | > 10000 nM
CCc1cc2ccc(C(C)(C#N)CCOc3cccc4c3OCCO4)cc2[nH]c1=O (stereo not shown) [Compound 163] | 1260 nM | 1000 nM
CCc1cc2ccc(C(C)(C#N)Cc3cccc(CCC#N)c3)cc2[nH]c1=O (stereo not shown) [Compound 165] | 251 nM | 1000 nM
CCc1cc2ccc(C(C#N)(CCOc3ccccc3)C3CC3)cc2[nH]c1=O (stereo not shown) [Compound 166] | 501 nM | 7940 nM
CCc1cc2ccc(C(C)(C#N)CC#Cc3cccc(F)c3)cc2[nH]c1=O (stereo not shown) [Compound 184] | 100 nM | 3980 nM
Cc1cc2ccc([C@@](C)(C#N)[C@@H]3CCc4cc(C#N)ccc43)cc2[nH]c1=O [Compound 245] | 200 nM | 7940 nM
CCc1cc2ccc([C@](C)(C#N)C[C@@H]3CCc4cc(C)ccc4O3)cc2[nH]c1=O [Compound 251] | 200 nM | 1000 nM
CCc1cc2ccc([C@@](C)(C#N)C[C@@H]3CCc4cc(C)ccc4O3)cc2[nH]c1=O [Compound 252] | 200 nM | 251 nM
CCc1cc2ccc(C(C#N)(CC)CCOc3ccc(C#N)cc3)cc2[nH]c1=O (stereo not shown) [Compound 271] | 100 nM | 2510 nM
Cc1cc2ccc([C@@](C)(C#N)[C@H]3CCc4cc(C#N)ccc43)cc2[nH]c1=O [Compound 389] | 200 nM | 200 nM
CCc1cc2ccc(C(C#N)(CC)C3CCc4ccc(F)cc43)cc2[nH]c1=O (stereo not shown) [Compound 391] | 200 nM | 794 nM

Now from value to molecule:

IC50 (Human PARP-1 enzyme) | IC50 (PC-3 cells) | SMILES
158 nM | 794 nM | CCc1cc2ccc(C(C)(C#N)CCOc3ccc(OC)cc3)cc2[nH]c1=O (stereo not shown) [Compound 147]
316 nM | 794 nM | CCc1cc2ccc(C(C)(C#N)CCOc3ccccc3C)cc2[nH]c1=O (stereo not shown) [Compound 148]
398 nM | 1000 nM | CCc1cc2ccc(C(C)(C#N)CCOc3ccc(C)cc3)cc2[nH]c1=O (stereo not shown) [Compound 149]
501 nM | 2000 nM | CCc1cc2ccc(C(C)(C#N)CCOc3cccc(Cl)c3)cc2[nH]c1=O (stereo not shown) [Compound 151]
316 nM | 631 nM | CCc1cc2ccc(C(C)(C#N)CCOc3ccccc3Br)cc2[nH]c1=O (stereo not shown) [Compound 153]
501 nM | 1580 nM | CCc1cc2ccc(C(C)(C#N)CCOc3ccc(SC)cc3)cc2[nH]c1=O (stereo not shown) [Compound 155]
1580 nM | 1000 nM | CCc1cc2ccc(C(C)(C#N)CCOc3ccc4ccccc4c3)cc2[nH]c1=O (stereo not shown) [Compound 157]
794 nM | 1260 nM | CCc1cc2ccc(C(C)(C#N)CCOc3ccc(Br)cc3)cc2[nH]c1=O (stereo not shown) [Compound 160]
251 nM | 501 nM | CCc1cc2ccc(C(C)(C#N)CCOc3ccc(C#N)cc3)cc2[nH]c1=O (stereo not shown) [Compound 161]
1580 nM | 7940 nM | CCc1cc2ccc(C(C)(C#N)CCOc3ccc(C(C)(C)C)cc3)cc2[nH]c1=O (stereo not shown) [Compound 167]
